From PubChem BioAssay (NCI)
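Grown in 96-well plates, cells were treated for 48 hours with each compound at five concentrations. Insufficient inhibition: endpoint recorded as highest concentration tested. The concentration for full growth arrest is given as TGI.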

Experiments:
Assay in all cases: DTP human tumour cell line panel, 48 h
HCT-15 colon = system: HCT-15 colon
UACC-62 melanoma = system: UACC-62 melanoma
TK-10 renal = system: TK-10 renal
A549 NSCLC = system: A549 NSCLC
MDA-MB-435 = system: MDA-MB-435
SF-539 CNS = system: SF-539 CNS
BT-549 breast = system: BT-549 breast
CCRF-CEM leukemia = system: CCRF-CEM leukemia
KM12 colon = system: KM12 colon
EKVX NSCLC = system: EKVX NSCLC
T-47D breast = system: T-47D breast
HOP-62 NSCLC = system: HOP-62 NSCLC
OVCAR-4 ovarian = system: OVCAR-4 ovarian
SK-MEL-28 melanoma = system: SK-MEL-28 melanoma
MDA-MB-231 breast = system: MDA-MB-231 breast
HCT-116 colon = system: HCT-116 colon
UO-31 renal = system: UO-31 renal
NCI-H460 lung = system: NCI-H460 lung
OVCAR-3 ovarian = system: OVCAR-3 ovarian
786-0 renal = system: 786-0 renal
SF-268 CNS = system: SF-268 CNS
NCI/ADR-RES ovarian = system: NCI/ADR-RES ovarian
HCC-2998 colon = system: HCC-2998 colon
ACHN renal = system: ACHN renal
OVCAR-5 ovarian = system: OVCAR-5 ovarian
SW-620 colon = system: SW-620 colon
HT29 colon = system: HT29 colon
HL-60(TB) leukemia = system: HL-60(TB) leukemia
K-562 leukemia = system: K-562 leukemia
RPMI-8226 leukemia = system: RPMI-8226 leukemia
UACC-257 melanoma = system: UACC-257 melanoma
SK-OV-3 ovarian = system: SK-OV-3 ovarian
COLO 205 colon = system: COLO 205 colon
LOX IMVI melanoma = system: LOX IMVI melanoma
SNB-19 CNS = system: SNB-19 CNS
IGROV1 ovarian = system: IGROV1 ovarian
SK-MEL-2 melanoma = system: SK-MEL-2 melanoma
OVCAR-8 ovarian = system: OVCAR-8 ovarian
SF-295 CNS = system: SF-295 CNS
NCI-H522 lung = system: NCI-H522 lung
MCF7 breast = system: MCF7 breast
PC-3 prostate = system: PC-3 prostate
U251 CNS = system: U251 CNS
MDA-N = system: MDA-N
NCI-H226 lung = system: NCI-H226 lung
DU-145 prostate = system: DU-145 prostate
RXF 393 renal = system: RXF 393 renal
M14 melanoma = system: M14 melanoma
CAKI-1 renal = system: CAKI-1 renal
MALME-3M melanoma = system: MALME-3M melanoma
NCI-H23 lung = system: NCI-H23 lung
SK-MEL-5 melanoma = system: SK-MEL-5 melanoma
HOP-92 NSCLC = system: HOP-92 NSCLC
SN12C renal = system: SN12C renal
SNB-75 CNS = system: SNB-75 CNS
HS 578T breast = system: HS 578T breast
SR leukemia = system: SR leukemia
A498 renal = system: A498 renal
MOLT-4 leukemia = system: MOLT-4 leukemia

COC(=O)[C@]1(C)CCC[C@]2(C)[C@H]3CC[C@]4(C(C)C)OO[C@@H](O4)[C@]34O[C@@H]4C[C@H]21
TGI (HCT-15 colon): 7.06 µM
TGI (UACC-62 melanoma): 17.7 µM
TGI (TK-10 renal): 12.2 µM
TGI (A549 NSCLC): 3.56 µM
TGI (MDA-MB-435): 3.89 µM
TGI (SF-539 CNS): > 55.6 µM
TGI (BT-549 breast): 10.9 µM
TGI (CCRF-CEM leukemia): > 100 µM
TGI (KM12 colon): 11.2 µM
TGI (EKVX NSCLC): 3.71 µM
TGI (T-47D breast): 3.84 µM
TGI (HOP-62 NSCLC): 7 µM
TGI (OVCAR-4 ovarian): 3.73 µM
TGI (SK-MEL-28 melanoma): > 63.9 µM
TGI (MDA-MB-231 breast): 15 µM
TGI (HCT-116 colon): 3.03 µM
TGI (UO-31 renal): 1.46 µM
TGI (NCI-H460 lung): 3.88 µM
TGI (OVCAR-3 ovarian): 3.65 µM
TGI (786-0 renal): 3.49 µM
TGI (SF-268 CNS): 5.31 µM
TGI (NCI/ADR-RES ovarian): 30.9 µM
TGI (HCC-2998 colon): 4.88 µM
TGI (ACHN renal): 1.75 µM
TGI (OVCAR-5 ovarian): 16.3 µM
TGI (SW-620 colon): > 33.7 µM
TGI (HT29 colon): 3.91 µM
TGI (HL-60(TB) leukemia): 4.88 µM
TGI (K-562 leukemia): > 100 µM
TGI (RPMI-8226 leukemia): > 100 µM
TGI (UACC-257 melanoma): 32.1 µM
TGI (SK-OV-3 ovarian): 4.83 µM
TGI (COLO 205 colon): 5.2 µM
TGI (LOX IMVI melanoma): 1.04 µM
TGI (SNB-19 CNS): 24.5 µM
TGI (IGROV1 ovarian): 0.336 µM
TGI (SK-MEL-2 melanoma): 29.1 µM
TGI (OVCAR-8 ovarian): 26.5 µM
TGI (SF-295 CNS): 8.77 µM
TGI (NCI-H522 lung): 3.43 µM
TGI (MCF7 breast): 5.75 µM
TGI (PC-3 prostate): 3.11 µM
TGI (U251 CNS): 13.5 µM
TGI (MDA-N): 6.13 µM
TGI (NCI-H226 lung): 13.5 µM
TGI (DU-145 prostate): 3.07 µM
TGI (RXF 393 renal): 11.6 µM
TGI (M14 melanoma): 17.3 µM
TGI (CAKI-1 renal): 0.927 µM
TGI (MALME-3M melanoma): 20.5 µM
TGI (NCI-H23 lung): 23.5 µM
TGI (SK-MEL-5 melanoma): 8.02 µM
TGI (HOP-92 NSCLC): 4.14 µM
TGI (SN12C renal): 12 µM
TGI (SNB-75 CNS): 11.2 µM
TGI (HS 578T breast): 8.65 µM

CC(=O)OCC12C(OC(C)=O)C(=O)C3C(OC(C)=O)C14OC3(C)COC(=O)c1cccnc1C(C)C(C)C(=O)OC(C(OC(C)=O)C2OC(C)=O)C4(C)O (centres undefined)
TGI (HCT-15 colon): > 100 µM
TGI (UACC-62 melanoma): > 100 µM
TGI (TK-10 renal): > 100 µM
TGI (A549 NSCLC): > 100 µM
TGI (MDA-MB-435): > 100 µM
TGI (SF-539 CNS): > 100 µM
TGI (BT-549 breast): > 100 µM
TGI (CCRF-CEM leukemia): > 100 µM
TGI (KM12 colon): > 100 µM
TGI (EKVX NSCLC): > 100 µM
TGI (T-47D breast): > 100 µM
TGI (HOP-62 NSCLC): > 100 µM
TGI (OVCAR-4 ovarian): > 100 µM
TGI (SK-MEL-28 melanoma): > 100 µM
TGI (MDA-MB-231 breast): > 100 µM
TGI (HCT-116 colon): > 100 µM
TGI (UO-31 renal): > 100 µM
TGI (NCI-H460 lung): > 100 µM
TGI (OVCAR-3 ovarian): > 100 µM
TGI (786-0 renal): > 100 µM
TGI (SF-268 CNS): > 100 µM
TGI (HCC-2998 colon): > 100 µM
TGI (ACHN renal): > 100 µM
TGI (OVCAR-5 ovarian): > 100 µM
TGI (SW-620 colon): > 100 µM
TGI (HT29 colon): > 100 µM
TGI (HL-60(TB) leukemia): > 100 µM
TGI (K-562 leukemia): > 100 µM
TGI (RPMI-8226 leukemia): > 100 µM
TGI (UACC-257 melanoma): > 100 µM
TGI (SK-OV-3 ovarian): > 100 µM
TGI (COLO 205 colon): > 100 µM
TGI (LOX IMVI melanoma): > 100 µM
TGI (SNB-19 CNS): > 100 µM
TGI (IGROV1 ovarian): > 100 µM
TGI (SK-MEL-2 melanoma): > 100 µM
TGI (OVCAR-8 ovarian): > 100 µM
TGI (SF-295 CNS): > 100 µM
TGI (NCI-H522 lung): > 100 µM
TGI (MCF7 breast): > 100 µM
TGI (SR leukemia): > 100 µM
TGI (PC-3 prostate): > 100 µM
TGI (U251 CNS): > 100 µM
TGI (MDA-N): > 100 µM
TGI (NCI-H226 lung): > 100 µM
TGI (DU-145 prostate): > 100 µM
TGI (RXF 393 renal): > 100 µM
TGI (M14 melanoma): > 100 µM
TGI (CAKI-1 renal): > 100 µM
TGI (MALME-3M melanoma): > 100 µM
TGI (NCI-H23 lung): > 100 µM
TGI (SK-MEL-5 melanoma): > 100 µM
TGI (HOP-92 NSCLC): > 100 µM
TGI (A498 renal): > 100 µM
TGI (SN12C renal): > 100 µM
TGI (MOLT-4 leukemia): > 100 µM
TGI (SNB-75 CNS): > 100 µM
TGI (HS 578T breast): > 100 µM
